The record followed here is ChEMBL document CHEMBL3217597, “OH radical production stimulated by (RW)4D, a synthetic antimicrobial agent and indolicidin” (Medchemcomm, 2012).

Test [1] deals with Escherichia coli. The experiment in a line: Induction of hydroxyl radical production in Escherichia coli at 25 to 250 ng/mL after 1 hr by measuring increase in hydroxyphenyl fluorescein emission by flow cytometry analysis. It counts as functional, organism-based.
For test [2], the system named is Escherichia coli. Briefly: Induction of hydroxyl radical production in Escherichia coli at 25 to 250 ng/mL after 1 hr by measuring increase in hydroxyphenyl fluorescein emission by flow cytometry analysis in presence of thiourea. It counts as functional, organism-based.
The test system of test [3] is Escherichia coli. Briefly: Induction of hydroxyl radical production in Escherichia coli at 25 to 250 ng/mL after 2 hrs by measuring increase in hydroxyphenyl fluorescein emission by flow cytometry analysis. It counts as functional, organism-based.
In test [4] the test system is Escherichia coli. The experiment in a line: Induction of hydroxyl radical production in deltaiscS knockout Escherichia coli at 25 to 250 ng/mL after 1 hr by measuring increase in hydroxyphenyl fluorescein emission by flow cytometry analysis. It counts as functional, organism-based.
The test system of test [5] is Escherichia coli. The experiment in a line: Reduction of hydroxyl radical production in deltaacnB knockout Escherichia coli at 25 to 250 ng/ml after 1 hr by flow cytometry analysis. It counts as functional, organism-based.
Test [6] deals with Escherichia coli. Briefly: Reduction of hydroxyl radical production in deltaicdA knockout Escherichia coli at 25 to 250 ng/ml after 1 hr by flow cytometry analysis. It counts as functional, organism-based.
Test [7] relates to Escherichia coli. Briefly: Reduction of hydroxyl radical production in […] knockout Escherichia coli at 25 to 250 ng/ml after 1 hr by flow cytometry analysis. It counts as functional, organism-based.
The subject of test [8] is Escherichia coli. The experiment in a line: Reduction of hydroxyl radical production in deltamdh knockout Escherichia coli at 25 to 250 ng/ml after 1 hr by flow cytometry analysis. It counts as functional, organism-based.
Test [9] deals with Escherichia coli. Briefly: Induction of hydroxyl radical production in Escherichia coli at 5 to 15 ug/mL after 1 hr by measuring increase in hydroxyphenyl fluorescein emission by flow cytometry analysis in presence of thiourea. It counts as functional, organism-based.
Test [10] has as its system Escherichia coli. The experiment in a line: Induction of hydroxyl radical production in Escherichia coli at 5 to 15 ug/mL after 2 hrs by measuring increase in hydroxyphenyl fluorescein emission by flow cytometry analysis. It counts as functional, organism-based.
Test [11] has as its system Escherichia coli. The experiment in a line: Induction of hydroxyl radical production in deltaiscS knockout Escherichia coli at 5 to 15 ug/mL after 1 hr by measuring increase in hydroxyphenyl fluorescein emission by flow cytometry analysis. It counts as functional, organism-based.
Test [12] has as its system Escherichia coli. The experiment in a line: Reduction of hydroxyl radical production in deltaacnB knockout Escherichia coli at 5 to 15 ug/ml after 1 hr by flow cytometry analysis. It counts as functional, organism-based.
Test [13] concerns Escherichia coli. Briefly: Reduction of hydroxyl radical production in deltaicdA knockout Escherichia coli at 5 to 15 ug/ml after 1 hr by flow cytometry analysis. It counts as functional, organism-based.
Test [14] relates to Escherichia coli. Briefly: Reduction of hydroxyl radical production in […] knockout Escherichia coli at 5 to 15 ug/ml after 1 hr by flow cytometry analysis. It counts as functional, organism-based.
Test [15] concerns Escherichia coli. Briefly: Reduction of hydroxyl radical production in deltamdh knockout Escherichia coli at 5 to 15 ug/ml after 1 hr by flow cytometry analysis. It counts as functional, organism-based.
Test [16] has as its system Escherichia coli. The experiment in a line: Induction of hydroxyl radical production in Escherichia coli at 5 to 15 ug/mL after 1 hr by measuring increase in hydroxyphenyl fluorescein emission by flow cytometry analysis. It counts as functional, organism-based.
The subject of test [17] is Escherichia coli. Briefly: Induction of hydroxyl radical production in Escherichia coli at 9 to 45 ug/mL after 1 hr by measuring increase in hydroxyphenyl fluorescein emission by flow cytometry analysis in presence of thiourea. It counts as functional, organism-based.
Test [18] concerns Escherichia coli. The experiment in a line: Induction of hydroxyl radical production in Escherichia coli at 9 to 45 ug/mL after 2 hrs by measuring increase in hydroxyphenyl fluorescein emission by flow cytometry analysis. It counts as functional, organism-based.
Test [19] deals with Escherichia coli. Briefly: Induction of hydroxyl radical production in deltaiscS knockout Escherichia coli at 9 to 45 ug/mL after 1 hr by measuring increase in hydroxyphenyl fluorescein emission by flow cytometry analysis. It counts as functional, organism-based.
Test [20] deals with Escherichia coli. Briefly: Antibacterial activity against Escherichia coli […]. It counts as functional, organism-based.
Test [21] has as its system Escherichia coli. Briefly: Antibacterial activity against deltaiscS knockout Escherichia coli. It counts as functional, organism-based.
Test [22] has as its system Escherichia coli. The experiment in a line: Antibacterial activity against deltaacnB knockout Escherichia coli. It counts as functional, organism-based.
For test [23], the system named is Escherichia coli. The experiment in a line: Antibacterial activity against deltaicdA knockout Escherichia coli. It counts as functional, organism-based.
The test system of test [24] is Escherichia coli. Briefly: Antibacterial activity against […] knockout Escherichia coli. It counts as functional, organism-based.
The test system of test [25] is Escherichia coli. The experiment in a line: Antibacterial activity against deltamdh knockout Escherichia coli. It counts as functional, organism-based.
Test [26] relates to Escherichia coli. Briefly: Ratio of IC50 for deltaiscS knockout Escherichia coli to IC50 for Escherichia coli […]. It counts as functional.
Test [27] has as its system Escherichia coli. Briefly: Ratio of IC50 for deltaicdA knockout Escherichia coli to IC50 for Escherichia coli […]. It counts as functional.
Test [28] has as its system Escherichia coli. Briefly: Ratio of IC50 for deltaacnB knockout Escherichia coli to IC50 for Escherichia coli […]. It counts as functional.
The test system of test [29] is Escherichia coli. The experiment in a line: Reduction of hydroxyl radical production in deltaacnB knockout Escherichia coli at 9 ug/ml after 1 hr by flow cytometry analysis. It counts as functional, organism-based.
Test [30] has as its system Escherichia coli. Briefly: Reduction of hydroxyl radical production in deltaicdA knockout Escherichia coli at 9 to 45 ug/mL after 1 hr by flow cytometry analysis. It counts as functional, organism-based.
In test [31] the test system is Escherichia coli. Briefly: Reduction of hydroxyl radical production in […] knockout Escherichia coli at 9 to 45 ug/mL after 1 hr by flow cytometry analysis. It counts as functional, organism-based.
The subject of test [32] is Escherichia coli. Briefly: Reduction of hydroxyl radical production in deltamdh knockout Escherichia coli at 9 to 45 ug/mL after 1 hr by flow cytometry analysis. It counts as functional, organism-based.
The test system of test [33] is Escherichia coli. Briefly: Induction of hydroxyl radical production in Escherichia coli at 9 to 45 ug/mL after 1 hr by measuring increase in hydroxyphenyl fluorescein emission by flow cytometry analysis. It counts as functional, organism-based.
The subject of test [34] is Escherichia coli. The experiment in a line: Induction of hydroxyl radical production in Escherichia coli at 5 to 25 ug/mL after 1 hr by measuring increase in hydroxyphenyl fluorescein emission by flow cytometry analysis in presence of thiourea. It counts as functional, organism-based.
The subject of test [35] is Escherichia coli. Briefly: Induction of hydroxyl radical production in Escherichia coli at 5 to 25 ug/mL after 2 hrs by measuring increase in hydroxyphenyl fluorescein emission by flow cytometry analysis. It counts as functional, organism-based.
For test [36], the system named is Escherichia coli. The experiment in a line: Induction of hydroxyl radical production in deltaiscS knockout Escherichia coli at 5 to 25 ug/mL after 1 hr by measuring increase in hydroxyphenyl fluorescein emission by flow cytometry analysis. It counts as functional, organism-based.
Test [37] has as its system Escherichia coli. Briefly: Reduction of hydroxyl radical production in deltaacnB knockout Escherichia coli at 5 to 25 ug/ml after 1 hr by flow cytometry analysis. It counts as functional, organism-based.
The subject of test [38] is Escherichia coli. Briefly: Reduction of hydroxyl radical production in deltaicdA knockout Escherichia coli at 5 to 25 ug/ml after 1 hr by flow cytometry analysis. It counts as functional, organism-based.
Test [39] has as its system Escherichia coli. The experiment in a line: Reduction of hydroxyl radical production in […] knockout Escherichia coli at 5 to 25 ug/ml after 1 hr by flow cytometry analysis. It counts as functional, organism-based.
The subject of test [40] is Escherichia coli. The experiment in a line: Reduction of hydroxyl radical production in deltamdh knockout Escherichia coli at 5 to 25 ug/ml after 1 hr by flow cytometry analysis. It counts as functional, organism-based.
For test [41], the system named is Escherichia coli. The experiment in a line: Induction of hydroxyl radical production in Escherichia coli at 5 to 25 ug/mL after 1 hr by measuring increase in hydroxyphenyl fluorescein emission by flow cytometry analysis. It counts as functional, organism-based.

SMILES strings stand for the structures. In brackets after ≈: the same amount, converted by molar mass. Activity calls are given as the source filed them. The calls are words filed in the database; no cut-off is given here. Where a SMILES comes first, the peptide text is derived from it. Side-chain parts run from the residue outwards. [ ]: non-standard residue; d: D form. The star is where a group is joined. Lys(α,ε-(ArgTrp)2) = N=C(N)NCCC[C@H](N)C(=O)N[C@@H](Cc1c[nH]c2ccccc12)C(=O)NCCCC[C@H](NC(=O)[C@H](Cc1c[nH]c2ccccc12)NC(=O)[C@@H](N)CCCNC(=N)N)C(=O)*; βAla = NCCC(=O)O

For the molecule `CCn1cc(C(=O)O)c(=O)c2cc(F)c(N3CCNCC3)cc21`, the outcome in the test on Escherichia coli [1], in the test with Escherichia coli [3] and with Escherichia coli [5] was Active. The outcome in the test on Escherichia coli [2], with Escherichia coli [4], with Escherichia coli [6], with Escherichia coli [7] and in the test with Escherichia coli [8] was inactive.
Turning to `CC1(C)S[C@@H]2[C@H](NC(=O)[C@H](N)c3ccccc3)C(=O)N2[C@H]1C(=O)O`, the outcome in the test with Escherichia coli [9], in the test on Escherichia coli [11], in the test with Escherichia coli [13], with Escherichia coli [14] and in the test on Escherichia coli [15] was inactive. For the same molecule, the result in the test with Escherichia coli [10], in the test on Escherichia coli [12] and in the test with Escherichia coli [16] was Active.
With `N=C(N)NCCC[C@H](N)C(=O)N[C@@H](Cc1c[nH]c2ccccc12)C(=O)NCCCC[C@H](NC(=O)[C@H](Cc1c[nH]c2ccccc12)NC(=O)[C@@H](N)CCCNC(=N)N)C(=O)NCCCC[C@H](NC(=O)[C@H](CCCCNC(=O)[C@H](Cc1c[nH]c2ccccc12)NC(=O)[C@@H](N)CCCNC(=N)N)NC(=O)[C@H](Cc1c[nH]c2ccccc12)NC(=O)[C@@H](N)CCCNC(=N)N)C(=O)NCCC(N)=O` (H-RWK([Trp-Arg])K(Lys(α,ε-(ArgTrp)2))[βAla]-NH2), the outcome with Escherichia coli [17], in the test on Escherichia coli [19], in the test with Escherichia coli [30], in the test with Escherichia coli [31] and in the test with Escherichia coli [32] was inactive. The outcome in the test on Escherichia coli [18], in the test on Escherichia coli [29] and in the test on Escherichia coli [33] was Active. Besides, the IC50 in the test with Escherichia coli [20] amounted to 6.5 µg/mL (≈ 3.53 µM); with Escherichia coli [21] it was 9.9 µg/mL (≈ 5.37 µM); with Escherichia coli [22], 9.7 µg/mL (≈ 5.27 µM); in the test on Escherichia coli [23], 9.4 µg/mL (≈ 5.1 µM); with Escherichia coli [24], 8.3 µg/mL (≈ 4.51 µM); in the test with Escherichia coli [25], 7.8 µg/mL (≈ 4.23 µM). Moreover, the “Ratio IC50” value in the test on Escherichia coli [26], in the test on Escherichia coli [27] and in the test on Escherichia coli [28] was 1.5 in each case.
Regarding `NC[C@H]1O[C@H](O[C@H]2[C@H](O)[C@@H](O[C@H]3O[C@H](CO)[C@@H](O)[C@H](N)[C@H]3O)[C@H](N)C[C@@H]2N)[C@H](O)[C@@H](O)[C@@H]1O`, the result with Escherichia coli [34], in the test with Escherichia coli [36], in the test with Escherichia coli [38], in the test with Escherichia coli [39] and with Escherichia coli [40] was inactive. Further, the result in the test on Escherichia coli [35], in the test on Escherichia coli [37] and in the test with Escherichia coli [41] was Active.
